Experimental data reported in patent US20120263849A1, “BITTERNESS SUPPRESSION METHOD” (KAO CORPORATION, priority 2010, published 2012).

Assay: Sensory test of bitterness, agent added to quinine sulfate standard solutions
Assay type: in vivo, people
Conditions: summary of Tables 2 to 4 (quinine sulfate and catechin test solutions)
Description: The bitterness suppression agent of the present invention may be applied to any substance without any particular limitation as long as the substance contains a bitter component. It is preferably applied to a composition having a bitterness having a bitterness intensity of 7 or less based on the quinine sulfate standard solution. […] More specifically, the bitterness intensity is determined by the following procedure. […] Then, the values of bitterness intensity determined by each subject are averaged out and provided as the bitterness intensity of the test substance. […]
Five subjects conducted a sensory test with reference to the bitterness level of each test solution using the quinine sulfate standard solutions shown in the following Table 1 as a standard, and an average score of the evaluation scores submitted by each subject was calculated. […]

COC(=O)c1ccccc1O [methyl salicylate]
Suppression of bitterness (summary in words): effective suppression of bitterness without impairing the original taste and flavor
